Results on one compound are retold here after patent publication US20260306526A1, “COMBINATION THERAPY FOR BACTERIAL INFECTIONS COMPRISING ZINC-CHELATOR, BETA-LACTAM ANTIBIOTIC AND SERINE BETA-LACTAMASE INHIBITOR” (priority 2023, published 2026).

Common to all, as to type: cell-based
Experiment [1] relates to Acinetobacter baumannii ST25. Kind of experiment: MIC determination, fixed concentration of sBLI (Example 10). Conditions: with AMP and SUL 16 μg/mL, NDM-1, OXA-58, OXA-64, OXA-10, VEB-21, ADC-26, caMHB, 29.4 μM Zn2+. On the procedure: (§1) Antimicrobial susceptibility testing (AST) by broth microdilution (MIC determination) was performed according to The European Committee on Antimicrobial Susceptibility Testing (EUCAST) guidelines (see Reading guide for broth microdilution Version 5.0, 2024: https://www.eucast.org).
For combinations containing meropenem as the antibiotic, Sensititre™ FINMER meropenem 64-0.03 μg/mL plates (Thermo Fischer Diagnostics custom plates; YFINMER) were used in most of the experiments. For other antibiotics (and for meropenem whenever a higher start concentration than 64 μg/mL was needed) sterile clear round bottom polystyrene (non-treated) 96-well microplates (Corning 3788) were used for making serial two-fold dilutions of the antibiotic in cation-adjusted Mueller Hinton II broth (caMHB; Thermo Scientific, T3462, containing 29.4 μM Zn^2+ or MILLIPORE, 90922-500G, containing 5.6 μM Zn^2+), across the columns of the microtiter plate (128-0.06 μg/mL; columns 1-12).
The checkerboard plates were all modified by adding a serine β-lactamase inhibitor (sBLI) at a fixed concentration of 16 μg/mL. Additionally, the zinc chelator was added at various fixed concentrations. […]

Experiment [2] deals with bacterial strain. Briefly: MIC checkerboard assays, Examples 2 to 30 overall. How it is done: Thus, in most of the experiments, a Fractional Inhibitory Concentration Index (FICI) could not be calculated, and the conclusion of synergy was made through visual reading of the bacterial growth in the wells in the combination experiment.
as §1
Sterile clear round bottom polystyrene (non-treated) 96-well microplates (Corning 3788) were used for making serial two-fold dilutions of the antibiotic and the sBLI in cation-adjusted Mueller Hinton II broth (caMHB; Thermo Scientific, T3462, containing 29.4 μM Zn^2+), across the columns of the microtiter plate (256-0.06 μg/mL; columns 1-12). The checkerboard plates were all made by keeping the sBLI at a fixed ratio relative to antibiotic (absolute concentrations of each, in μg/mL) to all wells containing sample in each plate. Additionally, a set of samples was included in each test plate, where the zinc chelator was added, at various fixed concentrations, of 16 μg/mL, 8 μg/mL and/or 4 μg/mL (as specified in each Example). All sample wells contained growth medium (caMHB), and inoculated bacteria at a final inoculum between 3-7×10^5 CFU/mL. […]

In experiment [3] the test system is Klebsiella pneumoniae Kpn St147. Kind of experiment: MIC determination, checkerboard broth microdilution, meropenem + zinc chelator + avibactam (Example 1). How it is done: Antimicrobial susceptibility testing (AST) by broth microdilution was performed according to The European Committee on Antimicrobial Susceptibility Testing.
Sensititre™ FINMER meropenem 64-0.03 μg/ml plates (Thermo Fischer Diagnostics custom plates; YFINMER) were modified by adding avibactam to rows 3 to 8 in concentrations of 64, 16, 8, 4, 1 and 0.25 μg/ml, respectively. The zinc chelator was added to the wells of the plate, where applicable. Three plates were made per experiment, one without the zinc chelator (plate 1), one with 16 μg/ml of the zinc chelator (plate 2) and one with 32 μg/ml of the zinc chelator (plate 3). The first row in all plates was used as a positive control for meropenem only, and the second row included the zinc chelator in addition to meropenem (no avibactam added to rows 1 or 2). The zinc chelator was added at the indicated concentration to rows 3-8 of plates 2 and 3.
The effect of the combination of zinc chelator/MEM/avibactam was tested on a clinically isolated Klebsiella pneumoniae Kpn St147 actively constitutionally expressing the two resistance mechanisms NDM-1 and KPC-2 simultaneously. As a negative control, bacteria+meropenem was tested alone. As a positive control, bacteria+MEM+zinc chelator was used. In Table 1 and 2, concentrations (μg/ml) of meropenem are given in the top row left to right and avibactam concentrations (μg/ml) are given top to bottom in column 1. […] A blank cell indicates no growth.
The fractional inhibitory concentration (FIC) is defined as the concentration that kills when used in combination with another agent divided by the concentration that has the same effect when used alone. The FIC index (FICI) for the combination of two agents is the sum of their individual FIC values. […]
On the technique in general: Dilution methods test growth across graded concentrations, often in twofold steps.

On to `CN(C[C@H](O)[C@@H](O)[C@H](O)[C@H](O)CO)C(=O)c1ccc(CN(Cc2ccccn2)Cc2ccccn2)nc1` [zinc chelator], for which the “Synergy with the zinc chelator observed at concentration” value in experiment [1] turned out to be 16 µg/mL. Further, in experiment [2], the intrinsic antibiotic effect entry was “neither the zinc chelator nor the sBLI have intrinsic antibiotic effect”. The “FICI Zinc Chelator” value in experiment [3] (zinc chelator 16 μg/mL, MEM/avibactam 0.5/0.25 (r9), 0.25/1 (r10), 0.25/4 (r11), 0.06/8 (r12) μg/mL) is given as 0.008; in experiment [3] (zinc chelator 32 μg/mL, MEM/avibactam 0.5/0.25 (r13), 0.12/1 (r14), 0.06/4 (r15), 0.06/8 (r16) μg/mL), 0.016. For the same compound, the “amplification of the inhibitory effect” value in experiment [3] (zinc chelator at 16 μg/ml with MEM + avibactam) was “about 64 fold”.
